{"source": "patent US5480902A", "about": "“Thienylpyrrole fungicidal agents” (American Cyanamid Company, priority 1993, dated 1996)", "key": {"Venturia inaegualis": {"test_system": "Venturia inaegualis", "assay": "In vivo fungicidal activity on host plants, Apple Scab (AS)", "conditions": "sprayed on host plants before inoculation"}, "Cercospora beticola": {"test_system": "Cercospora beticola", "assay": "In vivo fungicidal activity on host plants, Sugar Beet Cercospora (SBC); note: ranges in brackets are in %", "conditions": "200 ppm; sprayed on host plants before inoculation"}, "Pythium ultimum": {"test_system": "Pythium ultimum", "assay": "In vitro fungicidal activity, growth inhibition of ground fungal mycelia (PYTHUL)", "assay_type": "cell-based", "conditions": "Globisporangium ultimum, 3-4 days at 21° C., averaged when more than one test, read-out: Growth inhibition rating, PYTHUL (converted)", "method": "(§1) Test compounds are dissolved or suspended in acetone and dispersed into cell well plates containing a suspension of ground fungal mycelia in a nutrient broth. Assay plates are incubated for 3-4 days at 21° C. Growth inhibition is measured visually and is rated using the following scale:\n(§2) Assay fungi include the plant pathogens, Pythium ultimum (Pythul); Rhizoctonia solani (Rhizso); Fusarium oxysporum f. sp. cucumerinum (Fusoxc); and Pseudocercosporella herpotrichoides (Psdche).\n(§3) When more than one test is run, the data are averaged."}, "Botrytis cinerea": {"test_system": "Botrytis cinerea", "assay": "In vivo fungicidal activity on host plants, Pepper Botrytis (PB)", "conditions": "sprayed on host plants before inoculation"}, "Pyricularia oryzae": {"test_system": "Pyricularia oryzae", "assay_type": "in vivo", "conditions": "sprayed on host plants before inoculation"}, "Rhizoctonia solani": {"test_system": "Rhizoctonia solani", "assay": "In vitro fungicidal activity, growth inhibition of ground fungal mycelia (RHIZSO)", "assay_type": "cell-based", "conditions": "3-4 days at 21° C., averaged when more than one test, read-out: Growth inhibition rating, RHIZSO", "method": "as §1, §2, §3"}, "Plasmopara viticola": {"test_system": "Plasmopara viticola", "assay": "In vivo fungicidal activity on host plants, Grape Downy Mildew (GDM)", "conditions": "sprayed on host plants before inoculation"}, "[1]": {"test_system": "Pseudocercosporella herpotrichoides", "assay": "In vitro fungicidal activity, growth inhibition of ground fungal mycelia (PSDCHE)", "assay_type": "cell-based", "conditions": "Oculimacula yallundae, 3-4 days at 21° C., averaged when more than one test, read-out: Growth inhibition rating, PSDCHE (converted)", "method": "as §1, §2, §3"}, "[2]": {"test_system": "Erysiphe graminis f. sp. tritici", "assay": "In vivo fungicidal activity on host plants, Wheat Powdery Mildew (WPM)", "conditions": "sprayed on host plants before inoculation"}, "[3]": {"test_system": "Fusarium oxysporum f. sp. cucumerinum", "assay": "In vitro fungicidal activity, growth inhibition of ground fungal mycelia (FUSOXC)", "assay_type": "cell-based", "conditions": "read-out: Growth inhibition rating, FUSOXC", "method": "as §1, §2, §3"}, "[4]": {"test_system": "Puccinia recondita f. sp. tritici", "assay": "In vivo fungicidal activity on host plants, Wheat Leaf Rust (WLR)", "conditions": "400 ppm; sprayed on host plants before inoculation"}, "[5]": {"conditions": "25 ppm, 3-4 days at 21° C., averaged when more than one test"}}, "note": "Read-outs that look alike come from different tables or passages of the source.", "data": [{"compound": "CCOCn1c(-c2ccc(Br)s2)c(C#N)c(Br)c1C(F)(F)F", "note": "[Compound 13, 4-Bromo-2-(5-bromo-2-thienyl)-1-(ethoxymethyl)-5-(trifluoromethyl)pyrrole-3-carbonitrile]", "values": [{"measurement": "Disease control rating, AS", "setting": "Venturia inaegualis; 200 ppm", "value": "0 (0)"}, {"measurement": "Disease control rating, SBC", "setting": "Cercospora beticola", "value": "0 (0)"}, {"measurement": "inhibition at 25 ppm", "setting": "Pythium ultimum", "value": 0, "unit": "%"}, {"measurement": "Disease control rating, PB", "setting": "Botrytis cinerea; 200 ppm", "value": "0 (0)"}, {"measurement": "Disease control rating, RB", "setting": "Pyricularia oryzae; 200 ppm", "value": "0 (0)"}, {"measurement": "inhibition at 25 ppm", "setting": "Rhizoctonia solani", "value": "30 to 59", "unit": "%"}, {"measurement": "Disease control rating, GDM", "setting": "Plasmopara viticola; 200 ppm", "value": "0 (0)"}, {"measurement": "inhibition at 25 ppm", "setting": "[1]", "value": 0, "unit": "%"}, {"measurement": "Disease control rating, WPM", "setting": "[2]; 200 ppm", "value": "9 (100)"}, {"measurement": "inhibition at 25 ppm", "setting": "[3]; [5]", "value": 0, "unit": "%"}]}, {"compound": "CCOCn1c(-c2ccc(Br)o2)c(C#N)c(Br)c1C(F)(F)F", "note": "[Compound 22, 4-Bromo-2-(5-bromo-2-furyl)-1-(ethoxymethyl)-5-(trifluoromethyl)pyrrole-3-carbonitrile]", "values": [{"measurement": "inhibition at 25 ppm", "setting": "Pythium ultimum", "value": 0, "unit": "%"}, {"measurement": "inhibition at 25 ppm", "setting": "Rhizoctonia solani", "value": 0, "unit": "%"}, {"measurement": "inhibition at 25 ppm", "setting": "[1]", "value": 0, "unit": "%"}, {"measurement": "inhibition at 25 ppm", "setting": "[3]; [5]", "value": 0, "unit": "%"}]}, {"compound": "N#Cc1cc(C(F)(F)F)[nH]c1-c1ccc(Cl)s1", "note": "[Compound 16, 2-(5-Chloro-2-thienyl)-5-(trifluoromethyl)pyrrole-3-carbonitrile]", "values": [{"measurement": "inhibition at 25 ppm", "setting": "Pythium ultimum", "value": 0, "unit": "%"}, {"measurement": "inhibition at 25 ppm", "setting": "Rhizoctonia solani", "value": "60 to 89", "unit": "%"}, {"measurement": "inhibition at 25 ppm", "setting": "[1]", "value": 0, "unit": "%"}, {"measurement": "inhibition at 25 ppm", "setting": "[3]; [5]", "value": 0, "unit": "%"}]}, {"compound": "N#Cc1c(-c2ccc(Br)o2)[nH]c(C(F)(F)F)c1Br", "note": "[Compound 19, 4-Bromo-2-(5-bromo-2-furyl)-5-(trifluoromethyl)pyrrole-3-carbonitrile]", "values": [{"measurement": "inhibition at 25 ppm", "setting": "Pythium ultimum", "value": 0, "unit": "%"}, {"measurement": "inhibition at 25 ppm", "setting": "Rhizoctonia solani", "value": 0, "unit": "%"}, {"measurement": "inhibition at 25 ppm", "setting": "[1]", "value": 0, "unit": "%"}, {"measurement": "inhibition at 25 ppm", "setting": "[3]; [5]", "value": 0, "unit": "%"}]}, {"compound": "N#Cc1c(-c2ccc(Br)s2)[nH]c(C(F)(F)F)c1Br", "note": "[Compound 3, 4-Bromo-2-(5-bromo-2-thienyl)-5-(trifluoromethyl)pyrrole-3-carbonitrile]", "values": [{"measurement": "Disease control rating, AS", "setting": "Venturia inaegualis; 400 ppm", "value": "9 (100)"}, {"measurement": "Disease control rating, RB", "setting": "Pyricularia oryzae; 400 ppm", "value": "0 (0)"}, {"measurement": "Disease control rating, GDM", "setting": "Plasmopara viticola; 400 ppm", "value": "9 (100)"}, {"measurement": "inhibition at 25 ppm", "setting": "[1]", "value": "30 to 59", "unit": "%"}, {"measurement": "Disease control rating, WPM", "setting": "[2]; 400 ppm", "value": "7 (90-95)"}, {"measurement": "Disease control rating, WLR", "setting": "[4]", "value": "9 (100)"}]}, {"compound": "O=[N+]([O-])c1c(-c2ccc(Cl)cc2)[nH]c(C(F)(F)F)c1-c1csc(Br)c1", "note": "[Compound 8, 3-(5-Bromo-3-thienyl)-5-(p-chlorophenyl)-4-nitro-2-(trifluoromethyl)pyrrole]", "values": [{"measurement": "Disease control rating, AS", "setting": "Venturia inaegualis; 400 ppm", "value": "8 (96-99)"}, {"measurement": "inhibition at 25 ppm", "setting": "Pythium ultimum", "value": 0, "unit": "%"}, {"measurement": "Disease control rating, PB", "setting": "Botrytis cinerea; 400 ppm", "value": "0 (0)"}, {"measurement": "Disease control rating, RB", "setting": "Pyricularia oryzae; 400 ppm", "value": "4 (45-59)"}, {"measurement": "inhibition at 25 ppm", "setting": "Rhizoctonia solani", "value": "30 to 59", "unit": "%"}, {"measurement": "Disease control rating, GDM", "setting": "Plasmopara viticola; 400 ppm", "value": "9 (100)"}, {"measurement": "inhibition at 25 ppm", "setting": "[1]", "value": 0, "unit": "%"}, {"measurement": "Disease control rating, WPM", "setting": "[2]; 400 ppm", "value": "0 (0)"}, {"measurement": "Disease control rating, WLR", "setting": "[4]", "value": "7 (90-95)"}, {"measurement": "inhibition at 25 ppm", "setting": "[3]; [5]", "value": 0, "unit": "%"}]}, {"compound": "CCOCn1c(-c2ccc(Cl)s2)c(C#N)c(Br)c1C(F)(F)F", "note": "[Compound 18, 4-Bromo-2-(5-chloro-2-thienyl)-1-(ethoxymethyl)-5-(trifluoromethyl)pyrrole-3-carbonitrile]", "values": [{"measurement": "inhibition at 25 ppm", "setting": "Pythium ultimum", "value": 0, "unit": "%"}, {"measurement": "inhibition at 25 ppm", "setting": "Rhizoctonia solani", "value": "30 to 59", "unit": "%"}, {"measurement": "inhibition at 25 ppm", "setting": "[1]", "value": 0, "unit": "%"}, {"measurement": "inhibition at 25 ppm", "setting": "[3]; [5]", "value": 0, "unit": "%"}]}, {"compound": "O=[N+]([O-])c1ccc(-c2c(C(F)(F)F)[nH]c(-c3ccc(Cl)cc3)c2[N+](=O)[O-])s1", "note": "[Compound 5, 2-(p-Chlorophenyl)-3-nitro-4-(5-nitro-2-thienyl)-5-(trifluoromethyl)pyrrole]", "values": [{"measurement": "Disease control rating, AS", "setting": "Venturia inaegualis; 400 ppm", "value": "4 (45-59)"}, {"measurement": "Disease control rating, PB", "setting": "Botrytis cinerea; 400 ppm", "value": "0 (0)"}, {"measurement": "Disease control rating, RB", "setting": "Pyricularia oryzae; 400 ppm", "value": "0 (0)"}, {"measurement": "inhibition at 25 ppm", "setting": "Rhizoctonia solani", "value": "90 to 99", "unit": "%"}, {"measurement": "Disease control rating, GDM", "setting": "Plasmopara viticola; 400 ppm", "value": "9 (100)"}, {"measurement": "inhibition at 25 ppm", "setting": "[1]", "value": "60 to 89", "unit": "%"}, {"measurement": "Disease control rating, WPM", "setting": "[2]; 400 ppm", "value": "0 (0)"}, {"measurement": "Disease control rating, WLR", "setting": "[4]", "value": "6 (75-89)"}, {"measurement": "inhibition at 25 ppm", "setting": "[3]", "value": "30 to 59", "unit": "%"}]}]}
